{
  "source": "paper PMC6934700",
  "about": "“Structure-Guided Design of a Fluorescent Probe for the Visualization of FtsZ in Clinically Important Gram-Positive and Gram-Negative Bacterial Pathogens” (Scientific Reports, 2019)",
  "key": {"[1]": {"system": "FtsZ in S. pyogenes ATCC 19615 cells", "test": "FtsZ visualization by fluorescence microscopy in live cells", "format": "cell-based, Streptococcus pyogenes", "conditions": "1 µg/mL for 5 minutes", "method": "All differential interference contrast (DIC) and fluorescence microscopy experiments were conducted using an Olympus BX50 microscope equipped with an X-cite Exacte 200 W mercury lamp, a 100× Olympus UPLSAPO oil immersion objective (1.40 aperture), as well as both Chroma ET-EGFP (FITC/Cy2) and ET mCherry, Texas Red filters. Images were captured using a QImaging Retiga R3 charge-coupled device (CCD) camera and the Ocular-Version 2.0 software package (QImaging).\nFor visualizing FtsZ in Gram-positive bacteria using BOFP, the bacterial cells were grown to log-phase in media suitable for each individual pathogen. Specifically, S. aureus NRS705 (MRSA) was grown in tryptic soy broth (TSB), E. faecalis ATCC 29212 and E. faecium ATCC 19434 were grown in lactobacilli MRS broth, S. agalactiae ATCC 12386 and S. pneumoniae ATCC 49619 were grown in TH broth, and S. pyogenes ATCC 19615 was grown in CAMH broth supplemented with 3% (v/v) LHB. For each Gram-positive bacterial strain, a total of 1 mL of cell culture was centrifuged at 15,000 × g for 1 minute and washed 2–3 times with 1 mL of PBS. After the final wash, the pelleted cells were resuspended in 500 µL of PBS containing 1 µg/mL of BOFP and incubated in the dark for 5 minutes at room temperature. The cells were then centrifuged at 15,000 × g for 1 minute, washed twice with 1 mL of PBS, and subsequently resuspended in 200 µL of PBS. […]"}, "S. agalactiae (SagFtsZ)": {"target": "T1, S. agalactiae (SagFtsZ) (Streptococcus agalactiae, UniProt Q8E183)", "T1 sequence (Q8E183 1-426)": "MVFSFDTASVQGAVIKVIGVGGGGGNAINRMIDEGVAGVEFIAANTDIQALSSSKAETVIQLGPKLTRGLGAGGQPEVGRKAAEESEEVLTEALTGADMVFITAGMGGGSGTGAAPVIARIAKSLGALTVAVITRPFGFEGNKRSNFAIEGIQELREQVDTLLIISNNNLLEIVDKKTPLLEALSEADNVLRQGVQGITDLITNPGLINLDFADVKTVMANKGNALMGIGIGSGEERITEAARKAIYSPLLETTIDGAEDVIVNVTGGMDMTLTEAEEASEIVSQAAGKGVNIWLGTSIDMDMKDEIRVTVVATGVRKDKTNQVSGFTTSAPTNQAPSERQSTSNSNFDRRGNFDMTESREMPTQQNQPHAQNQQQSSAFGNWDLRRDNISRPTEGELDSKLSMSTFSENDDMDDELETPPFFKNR", "test": "Fluorescence anisotropy binding of BOFP to SagFtsZ", "conditions": "for Kd: 50 mM Tris-HCl (pH 7.6), 50 mM KCl, 0.1 µM BOFP", "method": "(§1) Fluorescence anisotropy experiments were performed using an AVIV model ATF105 spectrofluorometer at 15, 25, or 37 °C. In these experiments, bandwidths were set to 4 nm in both the excitation and emission directions, with the excitation and emission wavelengths being set at 488 nm and 510 nm, respectively. BOFP (0.1 µM) was titrated with increasing concentrations (ranging from 0 to 12 µM) of FtsZ in 120 µL of buffer containing 50 mM Tris-HCl (pH 7.6) and 50 mM KCl. After each protein addition, the samples were equilibrated for 3 minutes, whereupon the fluorescence anisotropy was measured.\n(§2) In this equation, r0 is the anisotropy of the protein-free compound, r∞ is the anisotropy of the compound in the presence of an infinite concentration of FtsZ, [C]tot is the total concentration of the compound, and [P]tot is the total concentration of protein with each addition. These analyses yielded the equilibrium dissociation constant (Kd) for each binding reaction.\n(§3) The binding free energy (ΔG) at temperature T was derived from the corresponding Kd value determined at T using the following relationship:2 ΔG=−RTln(1/Kd)\n(§4) The binding enthalpy (ΔH) and entropy (ΔS) were derived from linear fits of the ln(1/Kd) vs. 1/T plots shown in Figs. 3f and 5e using the following relationship:3 ln(1/Kd)=−ΔH/R(1/T)+ΔS/R"}, "S. aureus (SaFtsZ)": {"target": "T2, S. aureus (SaFtsZ) (Staphylococcus aureus, UniProt P0A031)", "T2 construct": "6xHis (C); made in house; host or cells: E. coli BLR (DE3), pET-22b(+)", "T2 sequence (P0A031 1-390)": "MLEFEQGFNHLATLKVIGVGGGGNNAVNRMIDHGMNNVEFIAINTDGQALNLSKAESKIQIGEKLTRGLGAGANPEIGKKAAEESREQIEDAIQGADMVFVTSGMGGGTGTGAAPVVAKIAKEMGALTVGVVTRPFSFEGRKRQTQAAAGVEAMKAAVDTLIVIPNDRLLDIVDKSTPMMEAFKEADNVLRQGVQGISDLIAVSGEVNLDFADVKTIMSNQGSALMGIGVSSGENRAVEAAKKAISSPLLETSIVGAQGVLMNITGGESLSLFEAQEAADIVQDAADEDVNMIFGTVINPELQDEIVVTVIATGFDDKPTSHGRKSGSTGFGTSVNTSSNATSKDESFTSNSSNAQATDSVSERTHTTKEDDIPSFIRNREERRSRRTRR", "test": "biochemical", "format": "binding", "method": "as §1, §2, §3, §4\nThe impact of guanosine nucleotide and magnesium on the binding of BOFP to SaFtsZ was assessed at 37 °C in the same buffer described above. In these studies, the anisotropy of 0.1 µM BOFP alone or in the presence of 10 µM SaFtsZ was measured, with the latter also being measured in the presence of 0.1 mM GMPCPP (a non-hydrolyzable GTP analog), 10 mM MgCl2, or both.\nIn comparative control experiments, the anisotropy of 0.1 µM BODIPY FL-COOH or BOFP alone or in the presence of SaFtsZ (10 µM), SpyFtsZ (10 µM), KpFtsZ (2 µM), or PaFtsZ (2 µM) was measured at 37 °C in the same buffer described above."}, "[2]": {"conditions": "from linear fit of ln(1/Kd) vs. 1/T"}},
  "note": "Where two headings read alike, the source gives them in different places.",
  "data": [
    {"smiles": "CC1=CC(C)=[N+]2C1=Cc1ccc(CCC(=O)OCC(Oc3ccc(F)c(C(N)=O)c3F)c3nc(-c4ccc(C(F)(F)F)cc4)c(Br)o3)n1[B-]2(F)F", "note": "(centres unmarked) [BOFP]", "values": [
      {"measurement": "Fluorescence staining / FtsZ labeling in live cells", "setting": "[1]", "result": "bright bands of fluorescence staining are clearly visible at midcell"},
      {"measurement": "Kd", "setting": "S. agalactiae (SagFtsZ); 15 °C, read-out: Kd - 15 °C", "result": "620 ± 50", "unit": "nM"},
      {"measurement": "Kd", "setting": "S. agalactiae (SagFtsZ); 25 °C, read-out: Kd - 25 °C", "result": "1020 ± 90", "unit": "nM"},
      {"measurement": "Kd", "setting": "S. agalactiae (SagFtsZ); 37 °C, read-out: Kd - 37 °C", "result": "1310 ± 40", "unit": "nM"},
      {"measurement": "ΔH", "setting": "S. agalactiae (SagFtsZ); [2]", "result": "-6.6 ± 0.6", "unit": "kcal/mol"},
      {"measurement": "Effect of both GMPCPP and MgCl2 on anisotropy of SaFtsZ-bound BOFP", "setting": "S. aureus (SaFtsZ); 0.1 µM BOFP, 10 µM SaFtsZ, 0.1 mM GMPCPP and 10 mM MgCl2, 37 °C", "result": "modest increase in the anisotropy"},
      {"measurement": "Effect of GMPCPP alone or MgCl2 alone on anisotropy of SaFtsZ-bound BOFP", "setting": "S. aureus (SaFtsZ); 0.1 µM BOFP, 10 µM SaFtsZ, 0.1 mM GMPCPP or 10 mM MgCl2, 37 °C", "result": "neither GMPCPP alone (at 0.1 mM) nor MgCl2 alone (at 10 mM) has a significant effect"},
      {"measurement": "Kd", "setting": "S. aureus (SaFtsZ); 15 °C, 50 mM Tris-HCl (pH 7.6), 50 mM KCl, 0.1 µM BOFP, read-out: Kd - 15 °C", "result": "880 ± 80", "unit": "nM"},
      {"measurement": "Kd", "setting": "S. aureus (SaFtsZ); 25 °C, 50 mM Tris-HCl (pH 7.6), 50 mM KCl, 0.1 µM BOFP, read-out: Kd - 25 °C", "result": "1660 ± 120", "unit": "nM"},
      {"measurement": "Kd", "setting": "S. aureus (SaFtsZ); 37 °C, 50 mM Tris-HCl (pH 7.6), 50 mM KCl, 0.1 µM BOFP, read-out: Kd - 37 °C", "result": "3140 ± 130", "unit": "nM"},
      {"measurement": "ΔG", "setting": "S. aureus (SaFtsZ); calculated at T = 310 K (37 °C) from Kd", "result": "-7.8 ± 0.1", "unit": "kcal/mol"},
      {"measurement": "ΔH", "setting": "S. aureus (SaFtsZ); [2]", "result": "-10.2 ± 0.3", "unit": "kcal/mol"},
      {"measurement": "ΔS", "setting": "S. aureus (SaFtsZ); [2]", "result": "−7.8 ± 1.0", "unit": "cal/mol•K"},
      {"measurement": "Kd", "setting": "S. aureus (SaFtsZ); range over 15 to 37 °C, read-out: Kd range", "result": "900 to 3100", "unit": "nM"}
    ]}
  ]
}
